Inhibition and IC50 data for eleven compounds are collected here from patent US10899737B2, “Piperazine carbamates and methods of making and using same” (Lundbeck La Jolla Research Center, Inc., priority 2016, dated 2021).

Test [1] addresses T1, MAGL (Mus musculus, UniProt O35678).
T1 construct: Proteomes (mouse brain membrane fraction or cell lysates); from tissue; host or cells: mouse brain membrane fraction or cell lysates
T1 sequence (O35678 1-303): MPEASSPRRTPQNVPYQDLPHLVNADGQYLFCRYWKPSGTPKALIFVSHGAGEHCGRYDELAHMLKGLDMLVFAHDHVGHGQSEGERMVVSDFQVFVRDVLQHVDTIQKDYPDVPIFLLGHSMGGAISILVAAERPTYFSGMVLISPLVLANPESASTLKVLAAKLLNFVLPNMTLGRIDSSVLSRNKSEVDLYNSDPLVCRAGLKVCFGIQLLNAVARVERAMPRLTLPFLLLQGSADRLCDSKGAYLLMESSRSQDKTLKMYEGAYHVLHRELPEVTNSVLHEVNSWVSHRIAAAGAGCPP
Description: Mouse brain proteomes from inhibitor treated mice, MAGL inhibition. In kind it is in vivo. To be noted: 5 mg/kg oral gavage, C57Bl/6J mouse brain, 4 h following administration; read-out: MAGL % inh. 5 mg/kg (mouse). On the procedure: Preparation of Mouse Brain Proteomes from Inhibitor Treated Mice.
Inhibitors were administered to wild-type C57Bl/6J by oral gavage in a vehicle of polyethylene glycol. Each animal was sacrificed 4 h following administration and brain proteomes were prepared and analyzed according to previously established methods (See Niphakis, M. J., et al. (2011) ACS Chem. Neurosci. and Long, J. Z., et al. Nat. Chem. Biol. 5:37-44).

In test [2] the target is T1, MAGL. Kind of test: In vitro competitive activity-based protein profiling (mouse), MAGL. In kind it is biochemical. To be noted: for inhibition at 1 µM: 1 μM inhibitor, mouse brain membrane fraction or cell lysates, read-out: MAGL % inh. 1 μM (mouse). Put shortly:
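Mouse brain membrane fraction or cell lysate proteomes (50 μL, 1.0 mg/mL total protein) were preincubated with inhibitors at varying concentrations for 30 min at 37° C. FP-Rh (1.0 μL, 50 μM in DMSO) was then added for a further 30 min at 37° C. Samples were quenched with 4× SDS loading buffer and resolved by SDS-PAGE. MAGL activity was quantified from fluorescent gel band intensity using ImageJ 1.49 k.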

The target of test [3] is T2, ABHD6 (Mus musculus, UniProt Q8R2Y0).
T2 construct: Proteomes (mouse brain membrane fraction or cell lysates); from tissue; host or cells: mouse brain membrane fraction or cell lysates
T2 sequence (Q8R2Y0 1-336): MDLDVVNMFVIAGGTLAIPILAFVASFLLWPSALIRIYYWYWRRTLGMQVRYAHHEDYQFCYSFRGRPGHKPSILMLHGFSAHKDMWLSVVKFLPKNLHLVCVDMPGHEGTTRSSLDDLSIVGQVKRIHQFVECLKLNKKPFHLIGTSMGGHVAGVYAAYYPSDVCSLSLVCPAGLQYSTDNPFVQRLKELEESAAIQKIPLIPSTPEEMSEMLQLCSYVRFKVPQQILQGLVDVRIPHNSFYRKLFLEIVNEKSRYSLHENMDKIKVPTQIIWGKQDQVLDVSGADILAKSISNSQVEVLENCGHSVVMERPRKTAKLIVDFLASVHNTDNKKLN
Kind of test: In vitro competitive activity-based protein profiling (mouse), ABHD6. Type of test: biochemical. To be noted: 1 μM inhibitor, mouse brain membrane fraction or cell lysates; read-out: ABHD6 % inh. 1 μM (mouse). In short, it runs like this:
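Mouse brain membrane proteome or cell lysate (1.0 mg/mL protein) preincubated 30 min at 37 °C with inhibitor, then labelled 30 min at 37 °C with FP-rhodamine probe. Remaining MAGL and ABHD6 activity quantified by in-gel fluorescence band intensity after SDS-PAGE; values are % inhibition at 1 μM.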

For test [4], the target named is T3, ABHD6 (Homo sapiens, UniProt Q9BV23).
T3 construct: Proteomes (human prefrontal cortex or cell membrane fractions); endogenous in cells; human prefrontal cortex
T3 sequence (Q9BV23 1-337): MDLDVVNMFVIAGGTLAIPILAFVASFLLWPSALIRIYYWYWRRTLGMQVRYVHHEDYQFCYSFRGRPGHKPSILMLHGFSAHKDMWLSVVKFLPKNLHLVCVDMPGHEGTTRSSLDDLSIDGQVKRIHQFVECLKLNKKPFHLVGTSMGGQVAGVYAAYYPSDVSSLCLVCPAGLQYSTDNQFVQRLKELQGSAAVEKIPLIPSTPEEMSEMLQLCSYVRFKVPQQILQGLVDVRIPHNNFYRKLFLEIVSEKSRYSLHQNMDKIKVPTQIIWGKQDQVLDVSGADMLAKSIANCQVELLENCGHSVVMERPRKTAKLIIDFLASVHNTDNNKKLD
Kind of test: In vitro competitive activity-based protein profiling (human), ABHD6. Type of test: biochemical. To be noted: human PC3. In short, it runs like this: (§1)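 Human prefrontal cortex or cell membrane proteomes (1.0-2.0 mg/mL protein) preincubated 30 min at 37° C with inhibitor, then labeled 30 min RT with FP-Rh or JW912 probe. After SDS-PAGE, activity taken from fluorescent band intensity for each enzyme.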

Test [5] deals with T4, MAGL (Homo sapiens, UniProt Q99685).
T4 construct: Proteomes (human prefrontal cortex or cell membrane fractions); from tissue
T4 sequence (Q99685 1-303): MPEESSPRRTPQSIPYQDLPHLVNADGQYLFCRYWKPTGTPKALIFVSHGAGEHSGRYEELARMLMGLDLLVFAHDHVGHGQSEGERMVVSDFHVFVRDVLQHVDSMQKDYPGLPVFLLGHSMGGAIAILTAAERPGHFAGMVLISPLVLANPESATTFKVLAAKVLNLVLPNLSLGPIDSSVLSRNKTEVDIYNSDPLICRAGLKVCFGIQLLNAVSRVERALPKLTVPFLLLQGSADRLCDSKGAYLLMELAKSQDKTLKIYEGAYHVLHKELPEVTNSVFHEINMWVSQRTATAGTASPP
Description: In vitro competitive activity-based protein profiling (human), MAGL. To be noted: for inhibition at 1 µM: 1 μM inhibitor, human proteome, 30 min preincubation at 37° C, read-out: MAGL % inh. 1 μM (human); for IC50: human PC3. In kind it is biochemical. Put shortly:
as §1

The IC50 is the concentration needed to halve the response being measured. High values mean weaker potency, low ones greater potency.

On to `O=C(OC(C(F)(F)F)C(F)(F)F)N1CCN(Cc2ccc(Cl)cc2C2(C(=O)O)CCCC2)CC1` [Example 26, 1-(5-Chloro-2-((4-(((1,1,1,3,3,3-hexafluoropropan-2-yl)oxy)carbonyl)piperazin-1-yl)methyl)phenyl)cyclopentane-1-carboxylic Acid], for which the inhibition at 5 mg/kg on MAGL [1] is at least 75%. The inhibition at 1 µM at MAGL [2] is at least 75%; at ABHD6 [3], 0 to 25%; on MAGL [5], at least 75%. For the same compound, the IC50 at ABHD6 [4] was 1 to 10 µM; on MAGL [5], at most 0.1 µM.
For `O=C(OC(C(F)(F)F)C(F)(F)F)N1CCN(Cc2ccc(C(F)F)cc2C2(C(=O)O)CCCC2)CC1` [Example 27, 1-(5-(Difluoromethyl)-2-((4-(((1,1,1,3,3,3-hexafluoropropan-2-yl)oxy)carbonyl)piperazin-1-yl)methyl)phenyl)cyclopentane-1-carboxylic Acid], the inhibition at 5 mg/kg on MAGL [1] is at least 75%. In addition, the inhibition at 1 µM on MAGL [2] is at least 75%; at ABHD6 [3] it was 0 to 25%; at MAGL [5], at least 75%. The values for the half-maximal inhibitory concentration (IC50) at ABHD6 [4] and on MAGL [5] were 1 to 10 µM and at most 0.1 µM, respectively.
As to `O=C(O)CN1CCC(c2cc(C(F)(F)F)ccc2CN2CCN(C(=O)OC(C(F)(F)F)C(F)(F)F)CC2)CC1` [Example 31, 2-(4-(2-((4-(((1,1,1,3,3,3-Hexafluoropropan-2-yl)oxy)carbonyl)piperazin-1-yl)methyl)-5-(trifluoromethyl)phenyl)piperidin-1-yl)acetic Acid], at MAGL [1], the inhibition at 5 mg/kg lay within 0 to 25%. Further, the results for the inhibition at 1 µM at MAGL [2], on ABHD6 [3] and at MAGL [5] were at least 75%, 0 to 25% and at least 75%, respectively. The IC50 lay in the range of 1 to 10 µM at ABHD6 [4] and 0.1 to 1 µM at MAGL [5].
For the compound `O=C(O)C1CCN(C(=O)c2cc(C(F)(F)F)ccc2CN2CCN(C(=O)OC(C(F)(F)F)C(F)(F)F)CC2)CC1` [Example 35, 1-(2-((4-(((1,1,1,3,3,3-Hexafluoropropan-2-yl)oxy)carbonyl)piperazin-1-yl)methyl)-5-(trifluoromethyl)benzoyl)piperidine-4-carboxylic Acid], at MAGL [1], the inhibition at 5 mg/kg is 0 to 25%. Moreover, the results for the inhibition at 1 µM on MAGL [2], at ABHD6 [3] and at MAGL [5] were at least 75%, 0 to 25% and at least 75%, respectively. For the same compound, the IC50 on MAGL [2] (mouse proteome) fell in the range of 0.1 to 1 µM; on ABHD6 [4] it was 1 to 10 µM; on MAGL [5], 0.1 to 1 µM.
As for `O=C(OC(C(F)(F)F)C(F)(F)F)N1CCN(Cc2ccccc2C2(C(=O)O)CCCC2)CC1` [Example 36, 1-(2-((4-(((1,1,1,3,3,3-hexafluoropropan-2-yl)oxy)carbonyl)piperazin-1-yl)methyl)phenyl)cyclopentane-1-carboxylic acid], on MAGL [1], the inhibition at 5 mg/kg is at least 75%. The inhibition at 1 µM at MAGL [2] is at least 75%; on ABHD6 [3], 0 to 25%; at MAGL [5], at least 75%. The results for the IC50 on ABHD6 [4] and at MAGL [5] were 1 to 10 µM and at most 0.1 µM, respectively.
For the compound `O=C(OC(C(F)(F)F)C(F)(F)F)N1CCN(Cc2ccc(F)cc2C2(C(=O)O)CCCC2)CC1` [Example 40, 1-(5-fluoro-2-((4-(((1,1,1,3,3,3-hexafluoropropan-2-yl)oxy)carbonyl)piperazin-1-yl)methyl)phenyl)cyclopentane-1-carboxylic acid], the inhibition at 5 mg/kg on MAGL [1] was at least 75%. The figures for the inhibition at 1 µM at MAGL [2], on ABHD6 [3] and at MAGL [5] were at least 75%, 0 to 25% and at least 75%, respectively. Besides, the half-inhibitory concentration (IC50) on ABHD6 [4] was 1 to 10 µM; on MAGL [5], at most 0.1 µM.
For `O=C(O)CC1CCN(c2cc(C(F)(F)F)ccc2CN2CCN(C(=O)OC(C(F)(F)F)C(F)(F)F)CC2)CC1` [Example 43, 2-(1-(2-((4-(((1,1,1,3,3,3-hexafluoropropan-2-yl)oxy)carbonyl)piperazin-1-yl)methyl)-5-(trifluoromethyl)phenyl)piperidin-4-yl)acetic acid], at MAGL [1], the inhibition at 5 mg/kg is at least 75%. Moreover, the inhibition at 1 µM at MAGL [2], on ABHD6 [3] and at MAGL [5] was at least 75% in each case. The concentration for half-maximal inhibition (IC50) was 1 to 10 µM at ABHD6 [4] and at most 0.1 µM on MAGL [5].
With `O=C(OC(C(F)(F)F)C(F)(F)F)N1CCN(Cc2cccc(Cl)c2C2(C(=O)O)CCCC2)CC1` [Example 44, 1-(2-chloro-6-((4-(((1,1,1,3,3,3-hexafluoropropan-2-yl)oxy)carbonyl)piperazin1-yl)methyl)phenyl)cyclopentane-1-carboxylic acid], the inhibition at 5 mg/kg at MAGL [1] was at least 75%. Moreover, the inhibition at 1 µM at MAGL [2] is at least 75%; on ABHD6 [3] it was 50 to 75%. Further, the IC50 on ABHD6 [4] was 1 to 10 µM; at MAGL [5], at most 0.1 µM.
Regarding `O=C(OC(C(F)(F)F)C(F)(F)F)N1CCN(Cc2ccc(C(F)(F)F)cc2C2(C(=O)O)CCOCC2)CC1` [Example 45, 4-(2-((4-(((1,1,1,3,3,3-hexafluoropropan-2-yl)oxy)carbonyl)piperazin-1-yl)methyl)-5-(trifluoromethyl)phenyl)tetrahydro-2H-pyran-4-carboxylic acid], the inhibition at 5 mg/kg at MAGL [1] was at least 75%. In addition, the inhibition at 1 µM is at least 75% at MAGL [2], 0 to 25% at ABHD6 [3] and at least 75% at MAGL [5]. Moreover, the IC50 at ABHD6 [4] was 1 to 10 µM; at MAGL [5] it was at most 0.1 µM.
With `O=C(O)C1CCN(C(=O)c2cc(CN3CCN(C(=O)OC(C(F)(F)F)C(F)(F)F)CC3)ccc2C(F)(F)F)CC1` [Example 46, 1-(5-((4-(((1,1,1,3,3,3-hexafluoropropan-2-yl)oxy)carbonyl)piperazin-1-yl)methyl)-2-(trifluoromethyl)benzoyl)piperidine-4-carboxylic acid], the inhibition at 5 mg/kg at MAGL [1] fell in the range of 0 to 25%. Moreover, the figures for the inhibition at 1 µM at MAGL [2], on ABHD6 [3] and at MAGL [5] were at least 75%, 0 to 25% and at least 75%, respectively. In addition, the IC50 was 1 to 10 µM at ABHD6 [4] and at most 0.1 µM on MAGL [5].
Regarding `CC1(NCC(=O)O)CCN(c2cc(C(F)(F)F)ccc2CN2CCN(C(=O)OC(C(F)(F)F)C(F)(F)F)CC2)CC1` [Example 51, (1-(2-((4-(((1,1,1,3,3,3-hexafluoropropan-2-yl)oxy)carbonyl)piperazin-1-yl)methyl)-5-(trifluoromethyl)phenyl)-4-methylpiperidin-4-yl)glycine], the inhibition at 5 mg/kg on MAGL [1] fell in the range of 0 to 25%. Further, the inhibition at 1 µM at MAGL [2] was at least 75%; at ABHD6 [3], 0 to 25%; at MAGL [5] it was at least 75%. Moreover, the IC50 was 1 to 10 µM on ABHD6 [4] and at most 0.1 µM at MAGL [5].
